# Assay results reported in patent publication US7037901B1, “Radiosensitization by indolocarbazole derivatives” (priority 2001, dated 2006).
# Legend:
# [1] = target: T1, covalent topoisomerase-DNA cross-links in CHO cells (Cricetulus griseus, UniProt Q07050, S505G); experiment: In vivo K+-SDS co-precipitation assay for protein-DNA cross-links; assay type: cell-based, Chinese hamster; details: FIG. 5
# T1 construct: endogenous in cells; host or cells: Chinese hamster ovary CHO cells
# Excerpt: In vivo K^+-SDS co-precipitation assay for protein-DNA cross-links. The K^+-SDS co-precipitation assay as described previously (Chen, Y. N., et al., J. Biol. Chem., 265:10073–10080 (1990)) was used to quantify the formation of covalent topoisomerase-DNA cross-links in drug-treated cells.
# Briefly, the DNA in logarithmic growing Chinese hamster CHO cells was overnight-labeled in medium containing 1 μCi/ml of [mehtyl-^3H] thymidine. These cells were then trypsinized and diluted in fresh medium before aliquoted into a 24-well plate. After overnight incubation, the labeled cells were treated with various concentrations of drugs for 30 min, washed with phosphate-buffered saline once, and lysed by adding 1 ml of prewarmed lysis solution (1.25% SDS, 5 mM EDTA, 0.4 mg/ml salmon sperm DNA, pH 8.0, 65° C.).
# Following shearing chromosomal DNA by passing the lysate through a 19-gauge needle, the sample was transferred to a tube containing 0.25 ml of 325 mM KCl. The sample was vortexed vigorously for 10 s, cooled on ice for 10 min and centrifuged at 3000 rpm for 10 min at 4° C.
# The pellet was then resuspended in 1 ml of a wash solution (100 mM KCl, 1 mM EDTA, 0.1 mg/ml salmon sperm DNA, 10 mM Tris-HCl, pH 8.0) and placed at 65° C. for 10 min with occasional mixing. The sample was again cooled on ice for 10 min and centrifuged at 3000 rpm for 10 min at 4° C. After the pellet from each sample was washed again, the pellet was finally resuspended in 0.2 ml of 65° C. water and added to 5 ml of scintillation fluid to determine radioactive counts.
# The background precipitable counts were obtained by treating the lysate with proteinase K (400 μg/ml) at 65° C. for 2 h. Data are arithmetic means (±SD) of three determinations, and the background counts have been subtracted.
# [2] = system: human breast cancer MCF-7 cells; experiment: Clonogenic survival assay, drug alone (cytotoxicity) in MCF-7 cells; assay type: cell-based; details: 1 μM camptothecin for 1 h, read graphically from FIG. 2
# Procedure: (§1) Clonogenic Survival Assay. […] 18–24 h prior to experimental studies.
# (§2) Colonies consisting of >50 cells were counted.
# [3] = system: human breast cancer MCF-7 cells; experiment: Clonogenic survival assay with radiation (radiosensitization) in MCF-7 cells; assay type: cell-based
# Procedure: as §1, §2
# (§3) Irradiation of Cells. Drug-treated and control cells in medium were irradiated using a cobalt-60 source (Eldorado 8; Theratronics, Canada) at a dose rate of 105 cGy/min.
# (§4) Analysis of Survival Curves. Survival curves were corrected for cytotoxicity induced by drug alone treatment. Sensitization enhancement ratios (SERs) and standard deviations for survival curves were determined at 10% cell survival. Each SER was calculated by dividing the radiation dose to induce 10% cell survival in the absence of radiosensitizer with the radiation dose to induce 10% cell survival in the presence of radiosensitizer.
# The updated programs developed by Dr. N. Albright (San Rafael, Calif.) (Albright, N., Radiat. Res., 112:331–340 (1987)) were used for curve fitting for MCF-7 cells with the linear quadratic (LQ) and the single hit multi-target (SHMT) models. Both the LQ and SHMT models gave qualitatively good fits. The fit with the SHMT model was used for the present study.
# [4] = system: camptothecin-resistant, TOP1 mutant DC3F/C-10 cells
# Procedure: Clonogenic Survival Assay. For a typical clonogenic survival experiment, stock cultures of exponentially growing cells were trypsinized, rinsed, and plated (5×10^5 cells per dish for DC3F and DC3F/C-10 cells; 1×10^6 cells for MCF-7 cells) into 100-mm petri dishes and incubated at 37° C. 18–24 h prior to experimental studies.
# Following various experimental protocols with drug incubation and irradiation, cells were trypsinized, rinsed, counted, and plated for […] colony formation. Depending on the anticipated survival level, 10^2 to 10^5 cells were plated per dose point. When higher cell numbers were plated, large petri dishes were used to avoid possible cell-density effect (100-mm instead of 60-mm petri dishes for cell number≧5×10^4). Depending on the treatment protocols, an equivalent amount of DMSO was added into each of the control radiation alone dishes (final DMSO concentration <0.1%).
# Following seven to fourteen days of incubation, colonies were fixed with methanol/acetic acid (3:1), stained with crystal violet. Colonies consisting of >50 cells were counted. All survival points were done in triplicate, and experiments were conducted a minimum of two times. Error bars shown in the figures represent standard deviations (SD) and are shown when larger than the symbol.
# The DC3F/C-10 cell line was selected from the Chinese Hamster lung fibroblast DC3F cell line in the presence of 1 μM of camptothecin (Albright, N., Radiat. Res., 112:331–340 (1987), and Chen, Y. N., J. Biol. Chem., 265:10073–10080 (1990)). […] In an attempt to determine the importance of TOP1 in mediating the cytotoxic and radiosensitizing effects by INDO derivatives, clonogenic survival assays were performed in DC3F and DC3F/C10 cells.
# DC3F cells = experiment: Radiosensitization in DC3F cells (clonogenic survival with radiation); assay type: cell-based, Chinese hamster
# Procedure: as §1, §2, §3, §4
# [5] = system: TOP1 mutant DC3F/C10 cells; experiment: Radiosensitization in DC3F/C10 cells (clonogenic survival with radiation); assay type: cell-based, Chinese hamster; details: DC3F/C10 cells
# Procedure: as §1, §2, §3, §4
# purified human TOP1 = target: T2, purified human TOP1 (Homo sapiens, UniProt P11387); experiment: In vitro drug-stimulated TOP1 cleavage assay (pHOT1 plasmid nicking); assay type: biochemical; details: purified human TOP1; FIG. 4, 4C
# T2 construct: purchased TopoGEN, Inc. (Columbus, Ohio)
# T2 sequence (P11387 1-765): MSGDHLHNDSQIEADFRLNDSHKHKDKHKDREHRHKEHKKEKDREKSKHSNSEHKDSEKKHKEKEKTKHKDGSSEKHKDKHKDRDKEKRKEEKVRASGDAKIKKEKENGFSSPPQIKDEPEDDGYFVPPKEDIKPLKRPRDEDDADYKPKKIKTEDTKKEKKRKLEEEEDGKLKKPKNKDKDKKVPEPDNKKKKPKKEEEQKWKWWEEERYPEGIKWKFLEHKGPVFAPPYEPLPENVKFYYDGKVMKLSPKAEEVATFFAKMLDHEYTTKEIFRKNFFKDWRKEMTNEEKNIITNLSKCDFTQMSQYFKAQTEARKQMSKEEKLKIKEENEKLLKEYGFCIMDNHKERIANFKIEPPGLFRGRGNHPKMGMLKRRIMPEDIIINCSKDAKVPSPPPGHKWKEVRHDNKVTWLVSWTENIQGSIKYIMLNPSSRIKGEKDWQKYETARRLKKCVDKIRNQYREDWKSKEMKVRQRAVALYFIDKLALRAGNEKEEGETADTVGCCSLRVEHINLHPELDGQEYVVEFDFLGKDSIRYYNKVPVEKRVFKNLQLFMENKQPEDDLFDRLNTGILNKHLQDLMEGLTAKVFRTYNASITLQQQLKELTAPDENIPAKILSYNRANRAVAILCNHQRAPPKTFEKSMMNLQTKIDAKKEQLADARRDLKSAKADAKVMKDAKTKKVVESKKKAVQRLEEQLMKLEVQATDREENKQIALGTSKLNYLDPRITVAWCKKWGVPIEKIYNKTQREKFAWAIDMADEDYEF
# Procedure: In vitro drug-stimulated TOP1 cleavage assay. Drug-stimulated DNA cleavage assay using purified human TOP1 was performed according to the protocol provided by TopoGEN Inc. (Columbus, Ohio) with modifications.
# Briefly, supercoiled pHOT1 plasmid DNA (0.2 μg) was incubated with 1 unit of human TOP1 in cleavage buffer (50 mM Tris, pH 7.8, 50 mM KCl, 10 mM MgCl2, 1 mM dithiothreitol, 1 mM EDTA) in the presence of varying concentrations of the drug under study. Following a 30-min incubation at 37° C., the reactions were terminated by adding SDS to 1.0% and proteinase K to 200 μg/ml. The proteinase K treatment continued at 37° C. for 1 h. The sample was then mixed with loading dye (containing sucrose and bromphenol blue) and separated in 1% agarose gel in 0.08 M Tris-phosphate, 0.008 M EDTA, pH 8.0 buffer at room temperature for 16 h.
# The gel was initially stained with ethidium bromide ([…]), washed and photographed under UV light. In order to separate the “nicked” from the “relaxed” DNA population, the gel was further run for 4 h in the presence of ethidium bromide before being photographed again under UV light. The photograph was scanned and the intensity of the nicked DNA of each lane was measured using the ImageJ program obtained from the National Institutes of Health (web site: rsb.info.nih.gov/ij/). The intensity of the nicked band of each lane was plotted after the background intensity (pHOT1+TOP1 lane) was subtracted.
# T1 sequence (Q07050 2-767 S505G): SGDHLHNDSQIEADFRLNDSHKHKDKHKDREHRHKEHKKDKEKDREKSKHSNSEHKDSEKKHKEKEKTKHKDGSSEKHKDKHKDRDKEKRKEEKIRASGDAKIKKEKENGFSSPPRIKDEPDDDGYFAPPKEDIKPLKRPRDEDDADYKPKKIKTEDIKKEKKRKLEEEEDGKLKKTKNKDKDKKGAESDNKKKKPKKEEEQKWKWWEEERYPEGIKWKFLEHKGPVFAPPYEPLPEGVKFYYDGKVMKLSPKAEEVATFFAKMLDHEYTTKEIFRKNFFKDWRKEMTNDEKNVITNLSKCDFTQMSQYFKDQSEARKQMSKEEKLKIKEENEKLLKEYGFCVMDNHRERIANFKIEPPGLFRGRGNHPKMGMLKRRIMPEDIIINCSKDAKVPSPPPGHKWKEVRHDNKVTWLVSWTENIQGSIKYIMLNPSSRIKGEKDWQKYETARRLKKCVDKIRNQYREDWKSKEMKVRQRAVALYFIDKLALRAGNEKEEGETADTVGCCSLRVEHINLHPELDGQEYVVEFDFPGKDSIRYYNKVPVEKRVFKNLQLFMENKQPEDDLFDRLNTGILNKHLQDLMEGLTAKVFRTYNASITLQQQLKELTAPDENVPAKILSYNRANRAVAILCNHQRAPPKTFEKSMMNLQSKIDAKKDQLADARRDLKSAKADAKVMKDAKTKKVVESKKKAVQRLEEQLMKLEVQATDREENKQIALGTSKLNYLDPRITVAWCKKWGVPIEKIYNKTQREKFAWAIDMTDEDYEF
Compound,Potency in stabilizing DNA-protein crosslinks (rank order) [1],Percent of cell survival without RT [2] [%],"ER (SER per footnote c, sensitization enhancement ratio) ([3]; 1 μM camptothecin 1 h before radiation, at 10% survival)","Dq (width of the shoulder of the radiation survival curve) ([3]; SHMT model fit, FIG. 3B)","RT dose (Gy) at 10% survival ([3]; pre-treated 1 μM camptothecin 1 h, rinsed, then radiation) [Gy]","Relative resistance of DC3F/C10 cells to the cytotoxic effect ([4]; LD50 of DC3F/C10 divided by LD50 of DC3F, camptothecin 30-min treatment)",RR (relative resistance) ([4]; LD50 of DC3F/C-10 cells divided by LD50 of DC3F cells),Radiation Dose (Gy) at 10% Survival (DC3F cells; 0.1 μM) [Gy],SER (DC3F cells; 0.1 μM),Radiation Dose (Gy) at 10% Survival (DC3F cells; 1.0 μM) [Gy],SER (DC3F cells; 1.0 μM),Radiation Dose (Gy) at 10% Survival ([5]; 1.0 μM) [Gy],SER ([5]; 1.0 μM),Radiation Dose (Gy) at 10% Survival ([5]; 10 μM) [Gy],SER ([5]; 10 μM),Potency in inducing TOP1-mediated DNA cleavage (nicking of pHOT1) (purified human TOP1)
"CC[C@@]1(O)C(=O)OCc2c1cc1n(c2=O)Cc2cc3ccccc3nc2-1 [Camptothecin, Camptothecin lactone, reference compound]",most potent,72 ± 5,1.4,drastically reduced,5.0,more than 12 fold,>12,4.3,1.4,3.9,1.5,5.2,1.0,4.6,1.1,
"COc1cc([C@@H]2c3cc4c(cc3[C@@H](O[C@@H]3O[C@@H]5CO[C@@H](C)O[C@H]5[C@H](O)[C@H]3O)[C@H]3COC(=O)[C@H]23)OCO4)cc(OC)c1O [etoposide, reference compound]",,,,,,,,,,,,,,,,no activity in inducing TOP1-mediated nicking of DNA
